System: HepG2 cells
Assay: FACTORIAL transcription factor signature assay (reporter transcription units) in a test cell system
Format: cell-based, human

Compound | most affected reporter transcription units (transcription factor signature) (24 hours after exposure) | further results
O=Cc1c2[nH]c3ccccc3c2cc2[nH]c3ccccc3c12 [6-formylindolo-[3,2-b]carbazole] | – | specific pathway shown by fluorescence peak manifestation (transcription factor signature) (HepG2 cells, after 24 hours exposure): Ahryloxane receptor (AhR)
[Cl][Cd][Cl] [cadmium dichloride] | – | reporter elements with most pronounced cellular response (transcription factor signature) (24 hours after exposure, 2.5 μM, 0.6 μM, 0.16 μM and 0.04 μM): most pronounced for the metallothionein response element (MRE) and the heat shock-response element (HSE)
lipopolysaccharide [endotoxin (lipopolysaccharide, LPS)] | NF-kappaB and Interferon-specific response element (ISRE) | –
triphenyltin | cellular heat shock response element (HSE), the peroxisome proliferator activating protein (PPAR) and the oxidative stress-specific RTU, NRF-2/ARE | –

— patent US11702707B2, “Systems and methods for assessing contamination of drinking water” (priority 2011, dated 2023)
